Experimental data as given in ChEMBL document CHEMBL3046040, “Synthesis, cytostatic and anti-viral activity evaluation of the novel acyclic nucleoside analogues containing a sterically constrained (Z)-4-amino-2-butenyl moiety” (Med Chem Res, 2011).
Activity calls are given as the source filed them. The calls are words filed in the database; no cut-off is given here.

target: Human immunodeficiency virus type 1 reverse transcriptase (Human immunodeficiency virus 1) (UniProt Q72547); test: Inhibition of Human immunodeficiency virus 1 recombinant reverse transcriptase at 500 uM; conditions: not given

SMILES | inhibition
Cc1cn(C/C=C\CN)c(=O)nc1N | inactive
Cc1cn(C/C=C\CN)c(=O)[nH]c1=O | inactive
NC/C=C\Cn1ccc(N)nc1=O | inactive

tested on: MCF7; test: Antiproliferative activity against Homo sapiens (human) MCF7 cells by MTT assay; format: functional, cell-based; conditions: not given

SMILES | IC50
Cc1cn(C/C=C\CN)c(=O)nc1N | 67.5 µM
Cc1cn(C/C=C\CN)c(=O)[nH]c1=O | 49.2 µM
NC/C=C\Cn1ccc(N)nc1=O | > 100 µM

tested on: Vesicular stomatitis virus; test: Antiviral activity against Vesicular stomatitis virus infected HeLa cells assessed as inhibition of virus-induced cytopathic effect; format: functional, organism-based; conditions: not given

SMILES | Activity
Cc1cn(C/C=C\CN)c(=O)nc1N | inactive
Cc1cn(C/C=C\CN)c(=O)[nH]c1=O | inactive
NC/C=C\Cn1ccc(N)nc1=O | inactive

tested on: Respiratory syncytial virus; test: Antiviral activity against Respiratory syncytial virus infected HeLa cells assessed as inhibition of virus-induced cytopathic effect; format: functional, organism-based; conditions: not given

SMILES | Activity
Cc1cn(C/C=C\CN)c(=O)nc1N | inactive
Cc1cn(C/C=C\CN)c(=O)[nH]c1=O | inactive
NC/C=C\Cn1ccc(N)nc1=O | inactive

tested on: Human immunodeficiency virus 1; test: Antiviral activity against Human immunodeficiency virus 1 IIIB infected CEM cells assessed as inhibition of virus-induced giant cell formation after 4 days by microscopic analysis; format: functional, organism-based; conditions: CCRF-CEM, 96 h

SMILES | EC50
Cc1cn(C/C=C\CN)c(=O)nc1N | 36 µM
Cc1cn(C/C=C\CN)c(=O)[nH]c1=O | 29 µM
NC/C=C\Cn1ccc(N)nc1=O | 96 µM

tested on: L1210; test: Cytostatic activity against Mus musculus (mouse) L1210 cells after 48 hr by Coulter counting analysis; format: functional, cell-based; conditions: Mus musculus, L1210, 48 h

SMILES | IC50
Cc1cn(C/C=C\CN)c(=O)nc1N | 45 µM
Cc1cn(C/C=C\CN)c(=O)[nH]c1=O | 43 µM
NC/C=C\Cn1ccc(N)nc1=O | > 500 µM

tested on: Influenza A virus; test: Antiviral activity against Unidentified Influenza A virus ([…]) infected MDCK cells assessed as inhibition of virus-induced cytopathic effect; format: functional, organism-based; conditions: Influenza A virus (H1N1)

SMILES | Activity
Cc1cn(C/C=C\CN)c(=O)nc1N | inactive
Cc1cn(C/C=C\CN)c(=O)[nH]c1=O | inactive
NC/C=C\Cn1ccc(N)nc1=O | inactive

tested on: HeLa; test: Antiproliferative activity against Homo sapiens (human) HeLa cells by MTT assay; format: functional, cell-based; conditions: not given

SMILES | IC50
Cc1cn(C/C=C\CN)c(=O)nc1N | > 100 µM
Cc1cn(C/C=C\CN)c(=O)[nH]c1=O | 61.6 µM
NC/C=C\Cn1ccc(N)nc1=O | > 100 µM

tested on: Punta Toro virus; test: Antiviral activity against Punta Toro virus infected Vero cells assessed as inhibition of virus-induced cytopathic effect; format: functional, organism-based; conditions: not given

SMILES | Activity
Cc1cn(C/C=C\CN)c(=O)nc1N | inactive
Cc1cn(C/C=C\CN)c(=O)[nH]c1=O | inactive
NC/C=C\Cn1ccc(N)nc1=O | inactive

tested on: Influenza B virus; test: Antiviral activity against Influenza B virus infected MDCK cells assessed as inhibition of virus-induced cytopathic effect; format: functional, organism-based; conditions: not given

SMILES | Activity
Cc1cn(C/C=C\CN)c(=O)nc1N | inactive
Cc1cn(C/C=C\CN)c(=O)[nH]c1=O | inactive
NC/C=C\Cn1ccc(N)nc1=O | inactive

tested on: Human respirovirus 3; test: Antiviral activity against Human parainfluenza virus 3 infected Vero cells assessed as inhibition of virus-induced cytopathic effect; format: functional, organism-based; conditions: not given

SMILES | Activity
Cc1cn(C/C=C\CN)c(=O)nc1N | inactive
Cc1cn(C/C=C\CN)c(=O)[nH]c1=O | inactive
NC/C=C\Cn1ccc(N)nc1=O | inactive

tested on: Human alphaherpesvirus 1; test: Antiviral activity against Human herpesvirus 1 strain KOS infected in HEL cells assessed as inhibition of virus-induced cytopathic effect; format: functional, organism-based; conditions: not given

SMILES | Activity
Cc1cn(C/C=C\CN)c(=O)nc1N | inactive
Cc1cn(C/C=C\CN)c(=O)[nH]c1=O | inactive
NC/C=C\Cn1ccc(N)nc1=O | inactive

tested on: HepG2; test: Antiproliferative activity against Homo sapiens (human) HepG2 cells by MTT assay; format: functional, cell-based; conditions: not given

SMILES | IC50
Cc1cn(C/C=C\CN)c(=O)nc1N | > 100 µM
Cc1cn(C/C=C\CN)c(=O)[nH]c1=O | > 100 µM
NC/C=C\Cn1ccc(N)nc1=O | > 100 µM

tested on: MOLT-4; test: Cytostatic activity against Homo sapiens (human) Molt4/C8 cells after 72 hr by Coulter counting analysis; format: functional, cell-based; conditions: MOLT-4, 72 h

SMILES | IC50
Cc1cn(C/C=C\CN)c(=O)nc1N | 42 µM
Cc1cn(C/C=C\CN)c(=O)[nH]c1=O | 44 µM
NC/C=C\Cn1ccc(N)nc1=O | > 500 µM

tested on: WI-38; test: Antiproliferative activity against Homo sapiens (human) WI38 cells by MTT assay; format: cell-based; conditions: not given

SMILES | IC50
Cc1cn(C/C=C\CN)c(=O)nc1N | 63 µM
Cc1cn(C/C=C\CN)c(=O)[nH]c1=O | 54.2 µM
NC/C=C\Cn1ccc(N)nc1=O | 85.2 µM

tested on: Coxsackievirus B4; test: Antiviral activity against Human coxsackievirus B4 infected HeLa cells assessed as inhibition of virus-induced cytopathic effect; format: functional, organism-based; conditions: not given

SMILES | Activity
Cc1cn(C/C=C\CN)c(=O)nc1N | inactive
Cc1cn(C/C=C\CN)c(=O)[nH]c1=O | inactive
NC/C=C\Cn1ccc(N)nc1=O | inactive

tested on: MIA PaCa-2; test: Antiproliferative activity against Homo sapiens (human) MIAPaCa2 cells by MTT assay; format: functional, cell-based; conditions: not given

SMILES | IC50
Cc1cn(C/C=C\CN)c(=O)nc1N | > 100 µM
Cc1cn(C/C=C\CN)c(=O)[nH]c1=O | 93.3 µM
NC/C=C\Cn1ccc(N)nc1=O | > 100 µM

tested on: Human immunodeficiency virus 2; test: Antiviral activity against Human immunodeficiency virus type 2 (ISOLATE ROD) infected CEM cells assessed as inhibition of virus-induced giant cell formation after 4 days by microscopic analysis; format: functional, organism-based; conditions: Human immunodeficiency virus 2, ISOLATE ROD, CCRF-CEM, 96 h

SMILES | EC50
Cc1cn(C/C=C\CN)c(=O)nc1N | 38 µM
Cc1cn(C/C=C\CN)c(=O)[nH]c1=O | 41 µM
NC/C=C\Cn1ccc(N)nc1=O | 78 µM

tested on: Reovirus sp.; test: Antiviral activity against Mammalian orthoreovirus 1 infected Vero cells assessed as inhibition of virus-induced cytopathic effect; format: functional, organism-based; conditions: not given

SMILES | Activity
Cc1cn(C/C=C\CN)c(=O)nc1N | inactive
Cc1cn(C/C=C\CN)c(=O)[nH]c1=O | inactive
NC/C=C\Cn1ccc(N)nc1=O | inactive

tested on: CCRF-CEM; test: Cytostatic activity against Homo sapiens (human) CEM cells after 72 hr by Coulter counting analysis; format: functional, cell-based; conditions: not given

SMILES | IC50
Cc1cn(C/C=C\CN)c(=O)nc1N | 46 µM
Cc1cn(C/C=C\CN)c(=O)[nH]c1=O | 51 µM
NC/C=C\Cn1ccc(N)nc1=O | > 500 µM

tested on: Coxsackievirus B4; test: Antiviral activity against Human coxsackievirus B4 infected Vero cells assessed as inhibition of virus-induced cytopathic effect; format: functional, organism-based; conditions: not given

SMILES | Activity
Cc1cn(C/C=C\CN)c(=O)nc1N | inactive
Cc1cn(C/C=C\CN)c(=O)[nH]c1=O | inactive
NC/C=C\Cn1ccc(N)nc1=O | inactive

tested on: SW-620; test: Antiproliferative activity against Homo sapiens (human) SW620 cells by MTT assay; format: functional, cell-based; conditions: Homo sapiens, SW-620

SMILES | IC50
Cc1cn(C/C=C\CN)c(=O)nc1N | 69.2 µM
Cc1cn(C/C=C\CN)c(=O)[nH]c1=O | 54.4 µM
NC/C=C\Cn1ccc(N)nc1=O | 53.2 µM

tested on: Influenza A virus H3N2; test: Antiviral activity against Influenza A virus H3N2 infected MDCK cells assessed as inhibition of virus-induced cytopathic effect; format: functional, organism-based; conditions: not given

SMILES | Activity
Cc1cn(C/C=C\CN)c(=O)nc1N | inactive
Cc1cn(C/C=C\CN)c(=O)[nH]c1=O | inactive
NC/C=C\Cn1ccc(N)nc1=O | inactive

tested on: Human alphaherpesvirus 2; test: Antiviral activity against Human herpesvirus 2 strain G infected HEL cells assessed as inhibition of virus-induced cytopathic effect; format: functional, organism-based; conditions: not given

SMILES | Activity
Cc1cn(C/C=C\CN)c(=O)nc1N | inactive
Cc1cn(C/C=C\CN)c(=O)[nH]c1=O | inactive
NC/C=C\Cn1ccc(N)nc1=O | inactive

tested on: Sindbis virus; test: Antiviral activity against Sindbis virus infected Vero cells assessed as inhibition of virus-induced cytopathic effect; format: functional, organism-based; conditions: not given

SMILES | Activity
Cc1cn(C/C=C\CN)c(=O)nc1N | inactive
Cc1cn(C/C=C\CN)c(=O)[nH]c1=O | inactive
NC/C=C\Cn1ccc(N)nc1=O | inactive
